Reference: patent US20170087149A9, “TREATMENT FOR […]” (priority 2013, published 2017)

System: collapsing trachea
Assay: Treatment of collapsing trachea in dogs (case reports)
Type: in vivo, dog
Conditions: Pomeranian
Experimental: Upon presentation, the patient had severe dyspnea and coughing.
Oxycodone sustained release was prescribed, 10 mg twice daily. […] When appetite returned (along with resumed coughing) the patient's dosage was adjusted to 2.5 mg twice daily (cutting the 10 mg tablets in quarters). […] On two occasions when the beginning of a cough was observed, a single additional 2.5 mg tablet was administered, followed by return to the original twice-daily dosing regimen.
The treatment described in Example 1 has been successfully repeated in two additional dogs diagnosed as having collapsing trachea.

With `O=C(O)C(O)C(O)C(=O)O.Oc1ccc2c(c1)[C@@]13CCCC[C@@]1(O)[C@@H](C2)N(CC1CCC1)CC3` [Torbutrol, butorphenol] as the compound, how does the “cough (prior treatment, history)” value (history before presentation) read?
Its value is “had been controlling the cough”.

What about the “exercise tolerance and panting (prior treatment, history)” value (history before presentation) of the same compound?
Its value is “highly intolerant to exercise (to the point of having to be carried) and continuously panting”.

And the “response at presentation (refractory stage)” value (severe intrathoracic collapsing trachea at presentation)?
The value was “stopped responding”.
